Experimental data published in ChEMBL document CHEMBL5329153, “Is structural hybridization invoking new dimensions for antimalarial drug discovery research?” (RSC Med Chem, 2023).
Converted amounts (≈) assume the structure as drawn.

Assays:
Assay type in all cases: functional, organism-based
[1] = system: Plasmodium falciparum; assay: Antimalarial activity against Chloroquine resistant Plasmodium falciparum W2 assessed as parasitic growth inhibition measured after 48 hrs by fluorescence based assay; settings: W2, 48 h
[2] = system: Plasmodium falciparum; assay: Antimalarial activity against Chloroquine resistant Plasmodium falciparum W2 assessed as parasitic growth inhibition
[3] = system: Plasmodium falciparum; assay: Antimalarial activity against Chloroquine sensitive Plasmodium falciparum D6 assessed as parasitic growth inhibition
[4] = system: Plasmodium falciparum; assay: Antimalarial activity against Plasmodium falciparum K1 assessed as parasitic growth inhibition
[5] = system: Plasmodium falciparum; assay: Antimalarial activity against Plasmodium falciparum Dd2 assessed as parasitic growth inhibition
[6] = system: Plasmodium falciparum; assay: Antimalarial activity against Plasmodium falciparum 3D7 assessed as parasitic growth inhibition
[7] = system: Plasmodium falciparum; assay: Antimalarial activity against Plasmodium falciparum assessed as parasitic growth inhibition
[8] = system: Plasmodium falciparum; assay: Antimalarial activity against Chloroquine sensitive Plasmodium falciparum assessed as parasitic growth inhibition

Structure (SMILES)	IC50 [2] [nM]	IC50 [3] [nM]	further results
O=C1c2ccc(N3CCCCC3)cc2C(=O)N1CCCCNc1ccnc2cc(Cl)ccc12			IC50 [1]: 77 nM
O=C1c2ccc(N3CCN(CCO)CC3)cc2C(=O)N1CCCCNc1ccnc2cc(Cl)ccc12			IC50 [1]: 14 nM
O=C1c2ccc(N3CCN(CCO)CC3)cc2C(=O)N1CCCCCCNc1ccnc2cc(Cl)ccc12			IC50 [1]: 15 nM
O=C1c2cccc(N3CCOCC3)c2C(=O)N1CCCCCCNc1ccnc2cc(Cl)ccc12			IC50 [1]: 25 nM
O=C1c2ccc(N3CCOCC3)cc2C(=O)N1CCCCCCNc1ccnc2cc(Cl)ccc12			IC50 [1]: 19 nM
Cc1cc(NCCNc2ccnc3cc(Cl)ccc23)nc(Nc2ccc(C(=O)N3CCCCC3)cc2)n1	33	32	
Cc1cc(NCCNc2ccnc3cc(Cl)ccc23)nc(Nc2ccc(C(=O)N3CCSCC3)cc2)n1	33	32	
C[C@H]1[C@H](OC(=O)CCC(=O)OCCc2cn(-c3ccnc4cc(Cl)ccc34)nn2)O[C@@H]2O[C@]3(C)CC[C@H]4[C@H](C)CC[C@@H]1[C@@]24OO3			EC50 [4]: 2.6 nM; EC50 [5]: 4.9 nM; EC50 [6]: 8 nM
Cc1cc(NCCCNc2ccnc3cc(Cl)ccc23)nc(Nc2ccc(C(=O)N3CCCC3)cc2)n1	33	32	
C[C@H]1[C@@H](OCCCCc2cn(-c3cccc4cc(Cl)ccc34)nn2)O[C@@H]2O[C@]3(C)CC[C@H]4[C@H](C)CC[C@@H]1[C@@]24OO3			EC50 [4]: 3.7 nM; EC50 [5]: 6.1 nM; EC50 [6]: 8.4 nM
O=C1c2ccc(N3CCN(CCO)CC3)cc2C(=O)N1CCNc1ccnc2cc(Cl)ccc12			IC50 [1]: 44 nM
Cc1nc2ccccc2c(C)c1C(=O)NNC(=S)Nc1ccc(Cl)c(Cl)c1			IC50 [7]: 0.19 µg/mL (≈ 0.453 µM)
Cc1nc2ccccc2c(C)c1C(=O)NNC(=S)NC(C)(C)C			IC50 [7]: 0.25 µg/mL (≈ 0.757 µM)
O=C1c2ccc(N3CCOCC3)cc2C(=O)N1CCCCNc1ccnc2cc(Cl)ccc12			IC50 [1]: 49 nM
Cc1cc(NCCCCCCNc2ccnc3cc(Cl)ccc23)nc(Nc2ccc(C(=O)N3CCSCC3)cc2)n1	33	32	
O=C1c2cccc(N3CCCCC3)c2C(=O)N1CCCCCCNc1ccnc2cc(Cl)ccc12			IC50 [1]: 75 nM
Cc1cc(NCCNc2ccnc3cc(Cl)ccc23)nc(Nc2ccc(C(=O)N3CCCC3)cc2)n1	33	32	
Cc1cc(Nc2ccc(C(=O)N3CCSCC3)cc2)nc(NCCCCNc2ccnc3cc(Cl)ccc23)n1	33	32	
Cc1cc(NCCCCNc2ccnc3cc(Cl)ccc23)nc(Nc2ccc(C(=O)N3CCCC3)cc2)n1	33	32	
O=C(c1ccc(Nc2nccc(NCCCCNc3ccnc4cc(Cl)ccc34)n2)cc1)N1CCOCC1	33	32	
O=C1c2cccc(N3CCOCC3)c2C(=O)N1CCCCNc1ccnc2cc(Cl)ccc12			IC50 [1]: 71 nM
C[C@H]1[C@H](OC(=O)CCC(=O)NCCNc2ccnc3cc(Cl)ccc23)O[C@@H]2O[C@]3(C)CC[C@H]4[C@H](C)CC[C@@H]1[C@@]24OO3			EC50 [4]: 0.78 nM; EC50 [5]: 1 nM; EC50 [6]: 2.7 nM

Structure (SMILES)	IC50 [2] [nM]	IC50 [3] [nM]	further results
O=C(c1ccc(Nc2nccc(NCCCCNc3ccnc4cc(Cl)ccc34)n2)cc1)N1CCCCC1	33	32	
Cc1cc(Nc2ccc(C(=O)N3CCSCC3)cc2)nc(NCCCNc2ccnc3cc(Cl)ccc23)n1	33	32	
CC1=C(C(=O)Nc2ccc(Br)cn2)C(c2cn(-c3ccccc3)nc2-c2ccc(C)cc2)NC(=O)N1 (centres undefined)			IC50 [8]: 0.08 µg/mL (≈ 0.147 µM)
Cc1cc(NCCCCCCNc2ccnc3cc(Cl)ccc23)nc(Nc2ccc(C(=O)N3CCOCC3)cc2)n1	33	32	
C[C@H]1[C@H](OC(=O)CCC(=O)OCCNc2ccnc3cc(Cl)ccc23)O[C@@H]2O[C@]3(C)CC[C@H]4[C@H](C)CC[C@@H]1[C@@]24OO3			EC50 [4]: 1.7 nM; EC50 [5]: 2.3 nM; EC50 [6]: 4.5 nM
Cc1cc(NCCNc2ccnc3cc(Cl)ccc23)nc(Nc2ccc(C(=O)N3CCOCC3)cc2)n1	33	32	
C#CCCCN(CCNc1ccnc2cc(Cl)ccc12)C(=O)CCC(=O)O[C@@H]1O[C@@H]2O[C@]3(C)CC[C@H]4[C@H](C)CC[C@@H]([C@H]1C)[C@@]24OO3			EC50 [4]: 1.3 nM; EC50 [5]: 1.6 nM; EC50 [6]: 3.5 nM
O=C(c1ccc(Nc2nccc(NCCCCNc3ccnc4cc(Cl)ccc34)n2)cc1)N1CCSCC1	33	32	
C[C@H]1[C@H](OC(=O)CCC(=O)OCCCc2cn(-c3ccnc4cc(Cl)ccc34)nn2)O[C@@H]2O[C@]3(C)CC[C@H]4[C@H](C)CC[C@@H]1[C@@]24OO3			EC50 [4]: 2.4 nM; EC50 [5]: 4.6 nM; EC50 [6]: 5.4 nM
O=C(c1ccc(Nc2nccc(NCCCNc3ccnc4cc(Cl)ccc34)n2)cc1)N1CCOCC1	33	32	
C[C@H]1[C@@H](OCc2cn(-c3cccc4cc(Cl)ccc34)nn2)O[C@@H]2O[C@]3(C)CC[C@H]4[C@H](C)CC[C@@H]1[C@@]24OO3			EC50 [4]: 4.3 nM; EC50 [5]: 5.9 nM; EC50 [6]: 9 nM
C[C@H]1[C@H](OC(=O)CCC(=O)OCCCCc2cn(-c3ccnc4cc(Cl)ccc34)nn2)O[C@@H]2O[C@]3(C)CC[C@H]4[C@H](C)CC[C@@H]1[C@@]24OO3			EC50 [4]: 2.5 nM; EC50 [5]: 4.4 nM; EC50 [6]: 6.2 nM
Cc1cc(NCCCNc2ccnc3cc(Cl)ccc23)nc(Nc2ccc(C(=O)N3CCSCC3)cc2)n1	33	32	
Cc1cc(Nc2ccc(C(=O)N3CCOCC3)cc2)nc(NCCCCNc2ccnc3cc(Cl)ccc23)n1	33	32	
CCNC(=S)NNC(=O)c1c(C)nc2ccccc2c1C			IC50 [7]: 0.15 µg/mL (≈ 0.496 µM)
Cc1cc(NCCCCCCNc2ccnc3cc(Cl)ccc23)nc(Nc2ccc(C(=O)N3CCCC3)cc2)n1	33	32	
Cc1nc2ccccc2c(C)c1C(=O)NNC(=S)Nc1ccc(Cl)cc1			IC50 [7]: 0.15 µg/mL (≈ 0.39 µM)
COc1cccc(NC(=S)NNC(=O)c2c(C)nc3ccccc3c2C)c1			IC50 [7]: 0.1 µg/mL (≈ 0.263 µM)
Cc1nc2ccccc2c(C)c1C(=O)NNC(N)=S			IC50 [7]: 0.19 µg/mL (≈ 0.693 µM)
C#CCCCC(C(=O)NCCOC(=O)CCC(=O)O[C@@H]1O[C@@H]2O[C@]3(C)CC[C@H]4[C@H](C)CC[C@@H]([C@H]1C)[C@@]24OO3)c1ccnc2cc(Cl)ccc12 (some centres undefined)			EC50 [4]: 2.2 nM; EC50 [5]: 4.8 nM; EC50 [6]: 6 nM
O=C(c1ccc(Nc2nccc(NCCCNc3ccnc4cc(Cl)ccc34)n2)cc1)N1CCCC1	33	32	
Cc1cc(NCCCNc2ccnc3cc(Cl)ccc23)nc(Nc2ccc(C(=O)N3CCCCC3)cc2)n1	33	32	

Structure (SMILES)	IC50 [2] [nM]	IC50 [3] [nM]	further results
Cc1nc2ccccc2c(C)c1C(=O)NNC(=S)Nc1ccc(F)cc1F			IC50 [7]: 0.26 µg/mL (≈ 0.673 µM)
Cc1cc(NCCCCNc2ccnc3cc(Cl)ccc23)nc(Nc2ccc(C(=O)N3CCCCC3)cc2)n1	33	32	
Cc1cc(Nc2ccc(C(=O)N3CCCC3)cc2)nc(NCCCCNc2ccnc3cc(Cl)ccc23)n1	33	32	
O=C(c1ccc(Nc2nccc(NCCCNc3ccnc4cc(Cl)ccc34)n2)cc1)N1CCCCC1	33	32	
O=C(c1ccc(Nc2nccc(NCCCCNc3ccnc4cc(Cl)ccc34)n2)cc1)N1CCCC1	33	32	
O=C(c1ccc(Nc2nccc(NCCCNc3ccnc4cc(Cl)ccc34)n2)cc1)N1CCSCC1	33	32	
Cc1cc(NCCCCCCNc2ccnc3cc(Cl)ccc23)nc(Nc2ccc(C(=O)N3CCCCC3)cc2)n1	33	32	
Cc1cc(NCCCNc2ccnc3cc(Cl)ccc23)nc(Nc2ccc(C(=O)N3CCOCC3)cc2)n1	33	32	
O=C1c2cccc(N3CCCCC3)c2C(=O)N1CCCCNc1ccnc2cc(Cl)ccc12			IC50 [1]: 51 nM
Cc1nc(-c2ccccc2)c(-c2ccccc2)c2cc(-c3cn(CCOC(=O)CCC(=O)O[C@@H]4O[C@@H]5O[C@]6(C)CC[C@H]7[C@H](C)CC[C@@H]([C@H]4C)[C@@]57OO6)nn3)ccc12			EC50 [4]: 3.3 nM; EC50 [5]: 4.8 nM; EC50 [6]: 5.3 nM
Cc1cc(NCCCCNc2ccnc3cc(Cl)ccc23)nc(Nc2ccc(C(=O)N3CCSCC3)cc2)n1	33	32	
Cc1cc(Nc2ccc(C(=O)N3CCOCC3)cc2)nc(NCCCNc2ccnc3cc(Cl)ccc23)n1	33	32	
CN(C)c1nc(N)nc(NCCNc2ccnc3cc(Cl)ccc23)n1			IC50 [6]: 46.3 µg/mL (≈ 129 µM)
C[C@H]1[C@@H](OCCc2cn(-c3cccc4cc(Cl)ccc34)nn2)O[C@@H]2O[C@]3(C)CC[C@H]4[C@H](C)CC[C@@H]1[C@@]24OO3			EC50 [4]: 2 nM; EC50 [5]: 4.5 nM; EC50 [6]: 8.8 nM
Cc1cc(Nc2ccc(C(=O)N3CCCCC3)cc2)nc(NCCCCNc2ccnc3cc(Cl)ccc23)n1	33	32	
Cc1nc2ccccc2c(C)c1C(=O)NNC(=S)Nc1ccc([N+](=O)[O-])cc1			IC50 [7]: 0.25 µg/mL (≈ 0.632 µM)
CCCCc1nc(C)c2ccc(-c3cn(CCOC(=O)CCC(=O)O[C@@H]4O[C@@H]5O[C@]6(C)CC[C@H]7[C@H](C)CC[C@@H]([C@H]4C)[C@@]57OO6)nn3)cc2c1CCCC			EC50 [4]: 4.2 nM; EC50 [5]: 10 nM; EC50 [6]: 9.2 nM
Cc1cc(Nc2ccc(C(=O)N3CCCC3)cc2)nc(NCCCNc2ccnc3cc(Cl)ccc23)n1	33	32	
Cc1cc(Nc2ccc(C(=O)N3CCCCC3)cc2)nc(NCCCNc2ccnc3cc(Cl)ccc23)n1	33	32	
C[C@H]1[C@@H](OCCCc2cn(-c3cccc4cc(Cl)ccc34)nn2)O[C@@H]2O[C@]3(C)CC[C@H]4[C@H](C)CC[C@@H]1[C@@]24OO3			EC50 [4]: 3.8 nM; EC50 [5]: 5.1 nM; EC50 [6]: 9.4 nM
C[C@H]1[C@H](OC(=O)CCC(=O)OCc2cn(-c3ccnc4cc(Cl)ccc34)nn2)O[C@@H]2O[C@]3(C)CC[C@H]4[C@H](C)CC[C@@H]1[C@@]24OO3 (racemic)			EC50 [4]: 1.8 nM; EC50 [5]: 4.2 nM; EC50 [6]: 5.3 nM
